Key:
Assay in all cases: Kinase profiling
Format in all cases: biochemical
ERBB4 = biological target: T1, ERBB4 (Homo sapiens, UniProt Q15303)
T1 construct: purchased ProQinase (Freiburg, Germany)
Method: (§1) The analysis was performed by ProQinase (Freiburg, Germany).

STK25 = biological target: T2, STK25 (Homo sapiens, UniProt O00506)
T2 construct: purchased ProQinase (Freiburg, Germany)
Method: as §1

TTBK1 = biological target: T3, TTBK1 (Homo sapiens, UniProt Q5TCY1)
T3 construct: purchased ProQinase (Freiburg, Germany)
Method: as §1

AXL = biological target: T4, AXL (Homo sapiens, UniProt P30530)
T4 construct: purchased ProQinase (Freiburg, Germany)
T4 sequence (P30530 26-894): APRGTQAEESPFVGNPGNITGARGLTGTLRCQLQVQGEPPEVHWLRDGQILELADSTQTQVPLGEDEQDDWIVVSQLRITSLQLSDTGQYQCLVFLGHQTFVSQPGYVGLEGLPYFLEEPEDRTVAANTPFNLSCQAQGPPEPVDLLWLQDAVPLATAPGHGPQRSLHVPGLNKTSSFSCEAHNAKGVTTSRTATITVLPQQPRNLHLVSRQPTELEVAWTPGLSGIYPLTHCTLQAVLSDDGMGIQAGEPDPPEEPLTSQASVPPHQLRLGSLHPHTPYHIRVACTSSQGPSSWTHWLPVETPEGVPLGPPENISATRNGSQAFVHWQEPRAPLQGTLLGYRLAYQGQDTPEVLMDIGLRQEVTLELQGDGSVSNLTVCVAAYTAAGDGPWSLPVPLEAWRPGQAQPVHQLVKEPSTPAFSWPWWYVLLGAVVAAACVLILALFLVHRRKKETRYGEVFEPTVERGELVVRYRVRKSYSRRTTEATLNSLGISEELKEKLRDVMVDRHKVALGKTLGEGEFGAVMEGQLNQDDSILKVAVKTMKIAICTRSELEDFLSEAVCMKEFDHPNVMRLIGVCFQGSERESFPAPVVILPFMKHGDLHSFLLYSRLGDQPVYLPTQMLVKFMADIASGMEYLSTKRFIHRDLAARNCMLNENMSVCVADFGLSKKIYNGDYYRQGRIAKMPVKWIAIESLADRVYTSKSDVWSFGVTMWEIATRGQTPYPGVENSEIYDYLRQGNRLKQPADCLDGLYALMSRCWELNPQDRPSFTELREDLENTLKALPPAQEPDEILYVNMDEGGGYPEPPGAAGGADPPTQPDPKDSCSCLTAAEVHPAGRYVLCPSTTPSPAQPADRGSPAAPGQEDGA
Method: as §1

NEK4 = biological target: T5, NEK4 (Homo sapiens, UniProt P51957)
T5 construct: purchased ProQinase (Freiburg, Germany)
Method: as §1

MAP4K4 = biological target: T6, MAP4K4 (Homo sapiens, UniProt O95819)
T6 construct: purchased ProQinase (Freiburg, Germany)
Method: as §1

WNK1 = biological target: T7, WNK1 (Homo sapiens, UniProt Q9H4A3)
T7 construct: purchased ProQinase (Freiburg, Germany)
Method: as §1

MAP3K10 = biological target: T8, MAP3K10 (Homo sapiens, UniProt Q02779)
T8 construct: purchased ProQinase (Freiburg, Germany)
Method: as §1

MAP3K11 = biological target: T9, MAP3K11 (Homo sapiens, UniProt Q16584)
T9 construct: purchased ProQinase (Freiburg, Germany)
Method: as §1

PRKD2 = biological target: T10, PRKD2 (Homo sapiens, UniProt Q9BZL6)
T10 construct: purchased ProQinase (Freiburg, Germany)
T10 sequence (Q9BZL6 1-878): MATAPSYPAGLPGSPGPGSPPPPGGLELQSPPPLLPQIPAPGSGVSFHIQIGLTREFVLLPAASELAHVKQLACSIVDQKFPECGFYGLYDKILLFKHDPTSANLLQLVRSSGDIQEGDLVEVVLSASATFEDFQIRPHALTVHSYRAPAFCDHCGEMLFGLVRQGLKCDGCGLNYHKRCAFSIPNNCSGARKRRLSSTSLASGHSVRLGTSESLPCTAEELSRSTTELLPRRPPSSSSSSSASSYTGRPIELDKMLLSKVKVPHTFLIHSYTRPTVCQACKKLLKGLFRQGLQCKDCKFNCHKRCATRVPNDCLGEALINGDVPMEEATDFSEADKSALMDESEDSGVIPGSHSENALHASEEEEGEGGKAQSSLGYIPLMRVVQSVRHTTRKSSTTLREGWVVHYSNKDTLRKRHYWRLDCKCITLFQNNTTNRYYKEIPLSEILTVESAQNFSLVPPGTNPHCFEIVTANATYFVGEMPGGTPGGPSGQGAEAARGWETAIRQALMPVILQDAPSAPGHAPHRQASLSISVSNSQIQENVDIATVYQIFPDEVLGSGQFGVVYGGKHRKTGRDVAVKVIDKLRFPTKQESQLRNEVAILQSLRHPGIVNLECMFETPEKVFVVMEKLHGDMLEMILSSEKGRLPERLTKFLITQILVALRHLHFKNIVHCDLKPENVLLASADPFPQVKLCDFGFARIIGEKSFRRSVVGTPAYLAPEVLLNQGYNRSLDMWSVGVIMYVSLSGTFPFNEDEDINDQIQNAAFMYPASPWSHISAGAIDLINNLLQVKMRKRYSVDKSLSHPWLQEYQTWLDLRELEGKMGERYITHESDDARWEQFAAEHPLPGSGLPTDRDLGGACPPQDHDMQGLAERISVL
Method: as §1

PLK3 = biological target: T11, PLK3 (Homo sapiens, UniProt Q9H4B4)
T11 construct: purchased ProQinase (Freiburg, Germany)
Method: as §1

T3 sequence (Q5TCY1 whole entry): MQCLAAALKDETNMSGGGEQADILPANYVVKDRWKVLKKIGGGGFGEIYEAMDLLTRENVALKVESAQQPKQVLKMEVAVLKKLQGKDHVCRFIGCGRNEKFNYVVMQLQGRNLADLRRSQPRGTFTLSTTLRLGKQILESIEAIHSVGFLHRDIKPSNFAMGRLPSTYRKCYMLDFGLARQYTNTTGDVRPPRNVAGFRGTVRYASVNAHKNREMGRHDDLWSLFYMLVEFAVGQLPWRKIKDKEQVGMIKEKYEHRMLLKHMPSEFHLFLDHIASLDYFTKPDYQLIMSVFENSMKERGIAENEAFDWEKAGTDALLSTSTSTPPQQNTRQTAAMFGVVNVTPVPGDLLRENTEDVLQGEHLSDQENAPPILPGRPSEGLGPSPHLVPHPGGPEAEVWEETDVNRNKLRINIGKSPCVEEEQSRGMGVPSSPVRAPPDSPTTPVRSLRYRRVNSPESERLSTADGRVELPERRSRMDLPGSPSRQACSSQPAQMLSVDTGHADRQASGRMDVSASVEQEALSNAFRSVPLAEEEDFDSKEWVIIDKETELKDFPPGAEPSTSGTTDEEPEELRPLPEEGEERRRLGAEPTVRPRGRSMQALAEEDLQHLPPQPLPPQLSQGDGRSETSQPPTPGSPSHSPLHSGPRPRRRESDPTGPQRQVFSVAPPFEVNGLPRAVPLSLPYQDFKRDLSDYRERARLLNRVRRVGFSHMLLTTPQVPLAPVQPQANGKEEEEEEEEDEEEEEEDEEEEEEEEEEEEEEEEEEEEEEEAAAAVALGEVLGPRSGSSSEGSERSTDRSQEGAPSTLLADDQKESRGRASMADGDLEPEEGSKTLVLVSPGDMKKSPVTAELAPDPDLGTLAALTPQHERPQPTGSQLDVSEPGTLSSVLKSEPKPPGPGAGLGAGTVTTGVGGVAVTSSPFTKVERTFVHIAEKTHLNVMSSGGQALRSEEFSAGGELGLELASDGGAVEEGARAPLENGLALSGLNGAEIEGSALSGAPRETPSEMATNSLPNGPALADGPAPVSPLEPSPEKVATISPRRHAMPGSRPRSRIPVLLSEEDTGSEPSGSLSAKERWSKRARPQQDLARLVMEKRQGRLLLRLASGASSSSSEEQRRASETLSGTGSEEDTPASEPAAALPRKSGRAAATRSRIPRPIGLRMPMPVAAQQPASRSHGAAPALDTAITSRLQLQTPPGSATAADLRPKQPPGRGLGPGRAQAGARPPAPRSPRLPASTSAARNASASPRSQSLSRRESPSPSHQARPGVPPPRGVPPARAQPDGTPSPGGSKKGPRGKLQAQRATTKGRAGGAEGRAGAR
T2 sequence (O00506 whole entry): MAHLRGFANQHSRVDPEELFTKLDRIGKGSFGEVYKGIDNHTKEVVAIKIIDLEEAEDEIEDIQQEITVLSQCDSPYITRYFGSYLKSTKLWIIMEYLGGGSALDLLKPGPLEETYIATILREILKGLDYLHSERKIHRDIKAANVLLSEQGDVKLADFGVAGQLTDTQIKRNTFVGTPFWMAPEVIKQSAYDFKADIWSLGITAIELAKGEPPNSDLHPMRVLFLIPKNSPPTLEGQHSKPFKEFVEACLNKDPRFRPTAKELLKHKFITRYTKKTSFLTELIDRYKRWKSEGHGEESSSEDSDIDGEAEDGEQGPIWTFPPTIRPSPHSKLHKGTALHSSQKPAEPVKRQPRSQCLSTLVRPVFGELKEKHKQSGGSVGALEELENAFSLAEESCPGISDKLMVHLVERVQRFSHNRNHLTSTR
T7 sequence (Q9H4A3 whole entry): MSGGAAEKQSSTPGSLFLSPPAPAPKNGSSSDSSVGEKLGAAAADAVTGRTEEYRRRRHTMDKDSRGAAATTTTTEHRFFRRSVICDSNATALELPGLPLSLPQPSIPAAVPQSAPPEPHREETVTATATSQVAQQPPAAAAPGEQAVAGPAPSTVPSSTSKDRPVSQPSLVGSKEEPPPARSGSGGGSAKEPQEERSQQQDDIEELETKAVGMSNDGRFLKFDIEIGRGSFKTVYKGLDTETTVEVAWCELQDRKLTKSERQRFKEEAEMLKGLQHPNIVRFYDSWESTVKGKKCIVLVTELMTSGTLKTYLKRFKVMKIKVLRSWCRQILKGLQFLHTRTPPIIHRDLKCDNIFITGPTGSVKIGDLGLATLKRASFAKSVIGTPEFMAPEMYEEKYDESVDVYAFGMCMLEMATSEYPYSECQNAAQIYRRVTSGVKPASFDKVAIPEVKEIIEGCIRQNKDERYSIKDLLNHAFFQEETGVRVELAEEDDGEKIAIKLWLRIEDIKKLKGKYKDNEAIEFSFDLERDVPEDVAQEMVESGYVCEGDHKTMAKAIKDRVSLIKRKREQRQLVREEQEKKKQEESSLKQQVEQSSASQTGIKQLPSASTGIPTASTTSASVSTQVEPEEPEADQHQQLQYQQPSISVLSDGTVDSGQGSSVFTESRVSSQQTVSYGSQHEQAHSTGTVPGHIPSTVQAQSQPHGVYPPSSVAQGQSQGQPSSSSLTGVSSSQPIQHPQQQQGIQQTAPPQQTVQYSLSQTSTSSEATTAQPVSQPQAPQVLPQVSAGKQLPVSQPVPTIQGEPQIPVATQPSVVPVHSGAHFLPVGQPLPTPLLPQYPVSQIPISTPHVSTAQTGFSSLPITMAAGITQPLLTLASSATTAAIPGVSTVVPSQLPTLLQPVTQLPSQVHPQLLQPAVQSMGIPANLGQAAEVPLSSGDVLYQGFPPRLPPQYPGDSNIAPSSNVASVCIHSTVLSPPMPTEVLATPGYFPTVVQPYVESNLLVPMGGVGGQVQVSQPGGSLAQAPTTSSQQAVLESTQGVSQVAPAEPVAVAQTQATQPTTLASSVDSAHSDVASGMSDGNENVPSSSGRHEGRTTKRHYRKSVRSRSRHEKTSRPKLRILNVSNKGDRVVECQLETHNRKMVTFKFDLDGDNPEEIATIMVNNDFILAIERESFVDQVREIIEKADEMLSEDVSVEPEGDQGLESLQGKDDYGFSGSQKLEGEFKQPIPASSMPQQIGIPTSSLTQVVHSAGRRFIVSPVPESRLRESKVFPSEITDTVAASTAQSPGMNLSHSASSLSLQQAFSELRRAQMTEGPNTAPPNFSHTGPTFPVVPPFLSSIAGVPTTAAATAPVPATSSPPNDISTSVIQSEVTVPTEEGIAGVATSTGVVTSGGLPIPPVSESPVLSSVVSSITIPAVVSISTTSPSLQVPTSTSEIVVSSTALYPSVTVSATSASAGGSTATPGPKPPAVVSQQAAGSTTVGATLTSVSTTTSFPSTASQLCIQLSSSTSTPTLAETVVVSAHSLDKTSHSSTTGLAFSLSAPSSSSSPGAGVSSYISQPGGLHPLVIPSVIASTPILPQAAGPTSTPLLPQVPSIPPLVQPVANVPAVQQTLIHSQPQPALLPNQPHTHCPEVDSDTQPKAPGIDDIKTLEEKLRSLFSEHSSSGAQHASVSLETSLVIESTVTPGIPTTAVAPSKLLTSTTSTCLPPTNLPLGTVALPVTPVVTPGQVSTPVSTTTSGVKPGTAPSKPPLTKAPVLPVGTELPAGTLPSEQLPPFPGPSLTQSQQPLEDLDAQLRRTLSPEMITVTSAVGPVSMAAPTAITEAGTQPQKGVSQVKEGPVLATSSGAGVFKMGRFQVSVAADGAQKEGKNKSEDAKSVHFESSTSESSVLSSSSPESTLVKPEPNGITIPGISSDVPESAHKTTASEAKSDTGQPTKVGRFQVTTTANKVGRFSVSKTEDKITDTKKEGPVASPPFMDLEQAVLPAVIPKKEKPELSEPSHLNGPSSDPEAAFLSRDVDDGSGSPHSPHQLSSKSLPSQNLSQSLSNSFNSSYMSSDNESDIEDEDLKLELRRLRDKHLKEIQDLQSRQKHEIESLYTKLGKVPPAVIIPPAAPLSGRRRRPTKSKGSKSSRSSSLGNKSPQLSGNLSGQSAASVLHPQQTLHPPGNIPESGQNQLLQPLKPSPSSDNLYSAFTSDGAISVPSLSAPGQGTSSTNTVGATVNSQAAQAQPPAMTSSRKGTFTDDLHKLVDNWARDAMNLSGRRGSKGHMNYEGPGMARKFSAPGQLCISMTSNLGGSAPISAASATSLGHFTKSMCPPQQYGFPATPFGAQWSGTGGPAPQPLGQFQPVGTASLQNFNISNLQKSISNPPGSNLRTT
T11 sequence (Q9H4B4 whole entry): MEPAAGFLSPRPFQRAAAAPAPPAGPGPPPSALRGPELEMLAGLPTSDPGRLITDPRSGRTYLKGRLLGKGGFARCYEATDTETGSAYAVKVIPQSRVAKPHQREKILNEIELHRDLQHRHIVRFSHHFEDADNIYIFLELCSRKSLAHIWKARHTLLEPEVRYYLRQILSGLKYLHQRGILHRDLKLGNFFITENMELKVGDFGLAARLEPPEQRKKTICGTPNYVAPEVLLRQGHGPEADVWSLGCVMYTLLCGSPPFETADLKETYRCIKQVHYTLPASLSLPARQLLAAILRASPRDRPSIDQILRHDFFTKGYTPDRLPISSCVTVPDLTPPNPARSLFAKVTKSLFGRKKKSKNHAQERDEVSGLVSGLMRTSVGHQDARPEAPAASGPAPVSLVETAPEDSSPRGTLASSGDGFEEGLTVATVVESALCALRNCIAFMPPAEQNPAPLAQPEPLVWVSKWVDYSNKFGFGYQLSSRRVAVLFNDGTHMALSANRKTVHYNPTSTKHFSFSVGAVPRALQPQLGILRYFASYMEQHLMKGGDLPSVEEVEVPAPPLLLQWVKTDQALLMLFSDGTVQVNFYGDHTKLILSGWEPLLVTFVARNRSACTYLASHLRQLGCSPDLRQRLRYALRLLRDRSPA

Row | Structure (SMILES) | Residual activity (ERBB4; 1.0E-05 M) | Residual activity (ERBB4; 1.0E-06 M) | Residual activity (STK25; 1.0E-05 M) | Residual activity (STK25; 1.0E-06 M) | Residual activity (TTBK1; 1.0E-05 M) | Residual activity (TTBK1; 1.0E-06 M) | Residual activity (AXL; 1.0E-05 M) | Residual activity (AXL; 1.0E-06 M) | Residual activity (NEK4; 1.0E-05 M) | Residual activity (NEK4; 1.0E-06 M) | Residual activity (MAP4K4; 1.0E-05 M) | Residual activity (MAP4K4; 1.0E-06 M) | Residual activity (WNK1; 1.0E-05 M) | Residual activity (WNK1; 1.0E-06 M) | Residual activity (MAP3K10; 1.0E-05 M) | Residual activity (MAP3K10; 1.0E-06 M) | Residual activity (MAP3K11; 1.0E-05 M) | Residual activity (MAP3K11; 1.0E-06 M) | Residual activity (PRKD2; 1.0E-05 M) | Residual activity (PRKD2; 1.0E-06 M) | other results
1 | O=C(Cc1ccccc1)Nc1ccc(F)c(Nc2ccc3c(c2)CCCCC3=O)c1 [Compound 100] | 71 % of control | 97 % of control | 89 % of control | 100 % of control | 126 % of control | 108 % of control | 99 % of control | 103 % of control | 81 % of control | 102 % of control | 95 % of control | 89 % of control | 97 % of control | 99 % of control | 84 % of control | 106 % of control | 118 % of control | 109 % of control | 92 % of control | 87 % of control | Residual activity (PLK3; 1.0E-05 M): 114 % of control; Residual activity (PLK3; 1.0E-06 M): 115 % of control
2 | O=C(Nc1ccc(F)c(Nc2ccc3c(c2)CCCCC3=O)c1)c1cccc(F)c1 [Compound 109] | 81 % of control | 98 % of control | 91 % of control | 90 % of control | 115 % of control | 101 % of control | 93 % of control | 98 % of control | 94 % of control | 98 % of control | 85 % of control | 94 % of control | 94 % of control | 93 % of control | 91 % of control | 96 % of control | 110 % of control | 108 % of control | 81 % of control | 82 % of control | Residual activity (PLK3; 1.0E-05 M): 104 % of control; Residual activity (PLK3; 1.0E-06 M): 104 % of control
